Laboratory results from patent US20110263478A1, “SUR1 INHIBITORS FOR THERAPY” (priority 2008, published 2011).

What was measured:
[1] = system: rats with spinal cord injury (SCI); assay: Rat cervical SCI model: hemorrhage / extravasated blood in cord; type: in vivo; conditions: 1 d post-SCI
Method: Constant infusion of a low-dose of drug was used to achieve sustained occupancy of only high-affinity receptors.
(§1) SCI injury model. This study was performed in accordance with the guidelines of the Institutional Animal Care and Use Committee. Adult female Long-Evans rats (275-350 gm) were anesthetized (Ketamine, 60 mg/kg plus Xylazine, 7.5 mg/kg, i.p.). The dura at C4-5 was exposed via a left hemilaminectomy. A hemi-cervical spinal cord contusion was created using a blunt force impactor (1.3-mm impactor head driven by a 10 gm weight dropped vertically 25 mm) (Soblo sky et al., 2001; Gensel et al., 2006). After SCI, animals were given 10 ml of glucose-free normal saline s.q. Rectal temperature was maintained at ˜37° C. using a servo-controlled warming blanket. Blood gases and serum glucose 10-15 min post-SCI were: pO2, 95±6 mm Hg; pCO2, 46±3 mm Hg; pH, 7.33±0.01; glucose 258±17 mg/dl in controls and pO2, 96±7 mm Hg; pCO2, 45±2 mm Hg; pH, 7.37±0.01; glucose 242±14 mg/dl in glibenclamide-treated animals.
(§2) Drug delivery. […] During the course of the project, slightly different formulations of drug were used, with the best results obtained using stock solutions made by placing 50 mg (or 25 mg) of drug into 10 ml DMSO, and infusion solutions made by placing 400 μl (or 800 μl) stock into 4.6 ml (or 4.2 ml) unbuffered saline (0.9% NaCl) and adjusting the pH to ˜8.5 using 0.1 N NaOH.
(§3) For in vivo gene suppression of SUR1, we used oligodeoxynucleotides that were phosphorothioated at 4 distal bonds to protect against endogenous nucleases (35). Within a few min of SCI, mini-osmotic pumps (Alzet 2002, 0.5 μl/h; Durect Corporation) with jugular vein catheters were implanted that delivered either scrambled sequence ODN (Scr-ODN) (5′-[…]-3′; SEQ ID NO:1) or antisense ODN (AS-ODN) (5′-[…]-3′; SEQ ID NO:2) (Yokoshiki et al., 1999) in PBS at a rate of 1 mg/rat/24 h.
Tissue blood. Rats were sacrificed at various times after SCI (n=5-11 rats/group), were perfused with heparinized saline to remove intravascular blood, and 5-mm segments of cord encompassing the lesion were homogenized and processed as described (Choudhri et al., 1997).

[2] = system: rats with spinal cord injury (SCI); assay: Rat cervical SCI model: histology, capillaries and lesion size; type: in vivo; conditions: 7 d post-SCI
Method: as §1, §2
Lesion size. At 7 d post-SCI, cords were paraffin sectioned and stained with H&E. Lesion volumes were calculated from lesion areas measured on serial sections every 250 μm.
Immunohistochemistry. Cryosections were immunolabeled (Chen et al., 2003; Simard et al., 2006) using primary antibodies directed against SUR1 (Santa Cruz, C-16; 1:200; 1 h at RT, 48 h at 4° C.), SUR2 (Santa Cruz, H-80; 1:200; 1 h at RT, 48 h at 4° C.), GFAP (Sigma, C-9205; 1:500), and vimentin (Sigma, monoclonal CY3 conjugated; 1:100). Quantitative immunofluorescence was performed as described (Gerzanich et al., 2003).

[3] = system: rats with spinal cord injury (SCI); assay: Rat cervical SCI model: neurobehavioral assessment (inclined plane, paw placement, rearing); type: in vivo
Method: as §1, with “blanket.” for “blanket. Blood gases and serum glucose 10-15 min post-SCI were: pO2, 95±6 mm Hg; pCO2, 46±3 mm Hg; pH, 7.33±0.01; glucose 258±17 mg/dl in controls and pO2, 96±7 mm Hg; pCO2, 45±2 mm Hg; pH, 7.37±0.01; glucose 242±14 mg/dl in glibenclamide-treated animals.”
For in vivo gene suppression of SUR1, we used oligodeoxynucleotides that were phosphorothioated at 4 distal bonds to protect against endogenous nucleases (35).
Neurobehavioral assessment. All measurements were performed by blinded evaluators. Performance on the inclined plane was evaluated as described (Rivlin and Tator, 1977). To assess paw placement and vertical exploration (rearing) (Nikulina et al., 2004) animals were videotaped while in a translucent cylinder (19×20 cm). Rearing was quantified as the number of seconds spent with both front paws elevated above shoulder-height during a 3-min period of observation.

SUR1 [4] = assay: SCI with i.v. ODN: SUR1 immunolabeling of cord; type: in vivo, rat
Excerpt: For studies with SCI, AS-ODN and Scr-ODN were used that were phosphorothioated at 4 distal bonds to protect against endogenous nucleases (Galderisi et al., 1999), with ODN's administered i.v. starting immediately after injury. […] With Scr-ODN, the necrotic void beneath the impact site was surrounded by an SUR1-positive shell of tissue, similar to observations in untreated animals (FIG. 1a). With AS-ODN, however, only the small volume of tissue immediately beneath the impact site was labeled for SUR1, and no necrotic void was evident (FIG. 5c).
as §3
Immunohistochemistry. […] Quantitative immunofluorescence was performed as described (Gerzanich et al., 2003).

SUR1 [5] = assay: Gliotic capsule model with ODN infusion: SUR1 Western blot and astrocyte patch clamp; type: in vivo, rat
Method: To validate the antisense strategy, it was first implemented in the model that was originally used for the discovery of the NCCa-ATP channel, wherein a gelatin sponge is implanted into the parietal lobe to stimulate formation of a gliotic capsule (Chen and Simard, 2001). Here, animals were also fitted with mini-osmotic pumps that delivered oligodeoxynucleotides (ODN), either antisense (AS) or scrambled (Scr), continuously for 7 d into the injury site.
SUR1 knock-down in astrocytes was performed in triplicates by implanting rats with gelatin sponges in the parietal lobe to induce formation of a gliotic capsule containing reactive astrocytes that express the SUR1-regulated NCCa-ATP channel (Chen and Simard, 2001; Chen et al., 2003). At the same time, they were implanted with mini-osmotic pumps (Alzet, model 2002; 14-day pump) placed in the dorsal thoracolumbar region that contained ODN (711 μg/ml delivered @ 0.5 μl/h, yielding 1500 picomoles/day), with the delivery catheter placed directly into the site of the gelatin sponge implant in the brain. Animals were infused with Src-ODN or AS-ODN, as above but not phosphorothioated. After 10-14 days, the gelatin sponge plus encapsulating gliotic tissues were harvested and processed either for Western immunoblots or to obtain fresh reactive astrocytes for patch clamp electrophysiology. […]

[6] = target: native and recombinant β-cell KATP channels (Homo sapiens, UniProt Q09428); conditions: read-out: IC50, block of β-cell KATP channels; cited from earlier work
[7] = system: rAbcc8 promoter / NFκB consensus sequences; assay: Luciferase reporter assay in HeLa cells; type: cell-based; conditions: 20 ng/ml
Method: Luciferase reporter assay. TNFα-stimulated activity of the promoter region of Abcc8 was determined using luciferase reporter plasmids as previously described. HeLa cells were transfected with luciferase reporter plasmids containing the rAbcc8 promoter (−3853 to +125) or four tandem NFκB consensus sequences (Clonetech, Mountain View, Calif.) using Lipofectamine-2000 (Invitrogen). Co-transfection of pRL-CMV, Renilla luciferase expression plasmid served as a control for transfection efficiency. The luciferase activity of cell extracts was determined using the Dual Luciferase system from Promega.

[8] = system: Abcc8 mRNA and SUR1 protein in bEnd.3 cells; assay: TNFα exposure of bEnd.3 cells: RT-PCR and immunoblot for Abcc8 / SUR1; type: cell-based, murine; conditions: 6-hr exposure, 20 ng/ml
Method: Immunoblot. Lysates of inferomedial cortex, or of cultured bEnd.3 cells (ATCC, Monassas, Va.) that had been exposed to TNFα (20 ng/ml) for 6 hr, were prepared by homogenizing in RIPA lysis buffer. SUR1 was immunoisolated using a custom antibody raised against amino acids 598-965 (Protein Id, NP_037171) in rabbits by a commercial service (Covance, Denver, Pa.). This custom antibody was used to immunoisolate SUR1 using standard techniques, following which immunoisolated SUR1 was run on electrophoretic gels (NuPAGE® 4-12% Bis-Tris gels; Novex, Invitrogen, Carlsbad, Calif.). SUR1 was detected using the same custom antibody. Membranes were stripped and re-blotted for β-actin (1:5000; Sigma), which was used as a loading control. Detection was carried out using the ECL system (Amersham BioTBIences, Inc.) with routine imaging (Fuji LAS-3000) and quantification (Scion Image, Scion Corp, Frederick, Md.).
RT-PCR. bEnd.3 cells were exposed to TNFα (20 ng/ml) for 6 hr. RNA was extracted with TRIzol reagent (Invitrogen). RT-PCR was performed using Reverse Transcription System (Promega). The target transcript was reverse transcribed at RT for 10 min, then incubated at 42° C. for 15 min. The cDNA was amplified using 35 cycles under the following conditions: 94° C. for 30 sec; 57° C. for 45 sec; 72° C. for 45 sec. […] RT-PCR products (449 bp) were analyzed using 2.0% agarose/EtBr gel electrophoresis.

[9] = target: SUR1-regulated NCCa-ATP channels (Rattus norvegicus, UniProt Q09429); conditions: read-out: EC50, block of SUR1-regulated NCCa-ATP channel; cited from earlier work
[10] = system: SUR-regulated channels (KATP / NCCa-ATP) in human aortic endothelial cells; assay: Nystatin-perforated patch clamp, diazoxide activation in endothelial cells cultured under normoxic or hypoxic conditions; type: cell-based; conditions: endothelial cells cultured under normoxic conditions
Method: (§4) Patch clamp of endothelial cells was performed using a nystatin-perforated patch technique, to maintain the metabolic integrity of the cells. The identity of the activated channel can be assessed by measurement of the “reversal potential”, the potential at which an ion channel current reverses from inward to outward. With physiologically relevant concentrations of ions intracellularly and extracellularly (high potassium inside, high sodium outside), the reversal potential can unambiguously distinguish between a K^+ channel current such as KATP, which reverses negative to −50 mV and a non-selective cation channel current such as NCCa-ATP, which reverses near 0 mV.
(§5) Cell culture. Endothelial cell cultures from human brain microvessels, human aorta (ScienCell Research Laboratories), and murine brain microvessels (bEnd.3; ATCC), were grown at low density using media and supplements recommended by suppliers.

[11] = target: T1, SUR-regulated channels (KATP / NCCa-ATP) in human aortic endothelial cells (Homo sapiens, UniProt Q09428); assay: as above; type: cell-based; conditions: most endothelial cells cultured under hypoxic conditions
T1 construct: host or cells: human aortic endothelial cells, cultured under normoxic or hypoxic conditions
Method: as §4, §5

[12] = 1 d post-SCI, ODN i.v., vs Scr-ODN

SUR1-regulated NCCa-ATP channels, sequence (Q09429 whole entry): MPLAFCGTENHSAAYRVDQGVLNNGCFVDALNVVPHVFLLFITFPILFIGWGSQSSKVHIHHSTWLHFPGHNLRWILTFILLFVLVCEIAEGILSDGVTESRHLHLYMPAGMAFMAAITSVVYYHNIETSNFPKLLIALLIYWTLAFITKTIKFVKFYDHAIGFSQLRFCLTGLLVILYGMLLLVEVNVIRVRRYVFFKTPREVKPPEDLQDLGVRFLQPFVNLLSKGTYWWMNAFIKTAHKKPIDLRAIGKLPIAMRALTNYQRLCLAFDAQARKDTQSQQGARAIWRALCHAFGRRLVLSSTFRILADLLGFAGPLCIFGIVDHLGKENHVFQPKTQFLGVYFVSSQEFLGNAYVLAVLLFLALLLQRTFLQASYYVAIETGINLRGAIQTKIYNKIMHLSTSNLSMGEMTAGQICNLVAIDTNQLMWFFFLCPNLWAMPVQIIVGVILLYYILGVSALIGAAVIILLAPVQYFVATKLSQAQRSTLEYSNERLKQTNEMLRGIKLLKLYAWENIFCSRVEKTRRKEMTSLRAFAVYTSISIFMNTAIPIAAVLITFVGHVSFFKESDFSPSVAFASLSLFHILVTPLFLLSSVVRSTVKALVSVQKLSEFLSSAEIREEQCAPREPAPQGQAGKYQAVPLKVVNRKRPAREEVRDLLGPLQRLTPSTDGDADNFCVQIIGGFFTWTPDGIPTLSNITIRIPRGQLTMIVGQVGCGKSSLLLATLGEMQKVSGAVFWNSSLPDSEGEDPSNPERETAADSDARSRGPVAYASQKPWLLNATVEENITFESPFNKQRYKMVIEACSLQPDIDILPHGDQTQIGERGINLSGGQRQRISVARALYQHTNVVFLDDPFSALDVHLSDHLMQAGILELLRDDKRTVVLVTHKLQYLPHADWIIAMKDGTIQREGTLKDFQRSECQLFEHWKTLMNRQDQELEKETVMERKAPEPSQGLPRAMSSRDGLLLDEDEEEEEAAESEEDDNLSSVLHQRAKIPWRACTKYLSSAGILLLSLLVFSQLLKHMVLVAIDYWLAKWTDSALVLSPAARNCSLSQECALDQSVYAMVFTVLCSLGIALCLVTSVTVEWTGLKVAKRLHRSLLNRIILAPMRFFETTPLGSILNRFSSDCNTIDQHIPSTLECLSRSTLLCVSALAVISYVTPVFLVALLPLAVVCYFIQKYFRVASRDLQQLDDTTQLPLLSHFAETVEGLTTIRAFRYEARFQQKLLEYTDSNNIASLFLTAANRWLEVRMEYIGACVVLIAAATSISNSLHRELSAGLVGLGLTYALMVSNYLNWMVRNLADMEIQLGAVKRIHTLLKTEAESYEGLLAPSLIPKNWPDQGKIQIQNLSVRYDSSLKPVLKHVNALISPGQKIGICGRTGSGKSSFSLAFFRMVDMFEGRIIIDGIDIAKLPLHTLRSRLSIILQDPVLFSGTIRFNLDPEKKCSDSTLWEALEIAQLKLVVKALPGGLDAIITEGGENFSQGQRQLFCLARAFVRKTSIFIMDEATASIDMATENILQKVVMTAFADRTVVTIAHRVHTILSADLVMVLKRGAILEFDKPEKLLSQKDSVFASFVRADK
SUR1-regulated NCCa-ATP channels, sequence (Q9ESQ5 whole entry partner): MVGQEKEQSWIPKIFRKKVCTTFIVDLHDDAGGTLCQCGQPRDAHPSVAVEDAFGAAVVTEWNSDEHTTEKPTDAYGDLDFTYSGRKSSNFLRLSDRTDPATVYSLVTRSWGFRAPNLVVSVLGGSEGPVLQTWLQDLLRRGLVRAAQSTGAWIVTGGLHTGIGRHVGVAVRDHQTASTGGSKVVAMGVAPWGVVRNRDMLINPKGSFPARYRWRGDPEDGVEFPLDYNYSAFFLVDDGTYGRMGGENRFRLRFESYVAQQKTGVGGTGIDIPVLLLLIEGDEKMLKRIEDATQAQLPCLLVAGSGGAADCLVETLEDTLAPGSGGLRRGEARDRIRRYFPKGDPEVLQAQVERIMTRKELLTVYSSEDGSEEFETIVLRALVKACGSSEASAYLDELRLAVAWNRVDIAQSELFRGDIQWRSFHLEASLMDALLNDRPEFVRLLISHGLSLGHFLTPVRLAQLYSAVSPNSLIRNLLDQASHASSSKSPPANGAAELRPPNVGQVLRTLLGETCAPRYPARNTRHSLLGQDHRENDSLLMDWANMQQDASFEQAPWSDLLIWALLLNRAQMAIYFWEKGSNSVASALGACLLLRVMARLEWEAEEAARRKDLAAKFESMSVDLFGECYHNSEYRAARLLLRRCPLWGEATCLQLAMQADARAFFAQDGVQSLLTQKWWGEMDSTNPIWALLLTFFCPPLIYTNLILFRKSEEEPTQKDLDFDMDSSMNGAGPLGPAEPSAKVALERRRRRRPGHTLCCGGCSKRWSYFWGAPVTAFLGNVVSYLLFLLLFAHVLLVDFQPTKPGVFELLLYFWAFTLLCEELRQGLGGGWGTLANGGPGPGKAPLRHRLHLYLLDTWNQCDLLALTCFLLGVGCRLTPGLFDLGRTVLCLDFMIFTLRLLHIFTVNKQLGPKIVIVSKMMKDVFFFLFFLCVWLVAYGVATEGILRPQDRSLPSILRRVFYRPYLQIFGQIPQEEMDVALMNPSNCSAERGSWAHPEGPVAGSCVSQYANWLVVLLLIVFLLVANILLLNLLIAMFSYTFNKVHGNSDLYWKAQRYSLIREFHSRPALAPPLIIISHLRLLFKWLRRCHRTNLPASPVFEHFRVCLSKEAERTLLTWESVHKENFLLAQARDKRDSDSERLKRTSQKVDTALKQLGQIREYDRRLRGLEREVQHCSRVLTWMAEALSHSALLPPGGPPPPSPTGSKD
T1 sequence (Q09428 whole entry): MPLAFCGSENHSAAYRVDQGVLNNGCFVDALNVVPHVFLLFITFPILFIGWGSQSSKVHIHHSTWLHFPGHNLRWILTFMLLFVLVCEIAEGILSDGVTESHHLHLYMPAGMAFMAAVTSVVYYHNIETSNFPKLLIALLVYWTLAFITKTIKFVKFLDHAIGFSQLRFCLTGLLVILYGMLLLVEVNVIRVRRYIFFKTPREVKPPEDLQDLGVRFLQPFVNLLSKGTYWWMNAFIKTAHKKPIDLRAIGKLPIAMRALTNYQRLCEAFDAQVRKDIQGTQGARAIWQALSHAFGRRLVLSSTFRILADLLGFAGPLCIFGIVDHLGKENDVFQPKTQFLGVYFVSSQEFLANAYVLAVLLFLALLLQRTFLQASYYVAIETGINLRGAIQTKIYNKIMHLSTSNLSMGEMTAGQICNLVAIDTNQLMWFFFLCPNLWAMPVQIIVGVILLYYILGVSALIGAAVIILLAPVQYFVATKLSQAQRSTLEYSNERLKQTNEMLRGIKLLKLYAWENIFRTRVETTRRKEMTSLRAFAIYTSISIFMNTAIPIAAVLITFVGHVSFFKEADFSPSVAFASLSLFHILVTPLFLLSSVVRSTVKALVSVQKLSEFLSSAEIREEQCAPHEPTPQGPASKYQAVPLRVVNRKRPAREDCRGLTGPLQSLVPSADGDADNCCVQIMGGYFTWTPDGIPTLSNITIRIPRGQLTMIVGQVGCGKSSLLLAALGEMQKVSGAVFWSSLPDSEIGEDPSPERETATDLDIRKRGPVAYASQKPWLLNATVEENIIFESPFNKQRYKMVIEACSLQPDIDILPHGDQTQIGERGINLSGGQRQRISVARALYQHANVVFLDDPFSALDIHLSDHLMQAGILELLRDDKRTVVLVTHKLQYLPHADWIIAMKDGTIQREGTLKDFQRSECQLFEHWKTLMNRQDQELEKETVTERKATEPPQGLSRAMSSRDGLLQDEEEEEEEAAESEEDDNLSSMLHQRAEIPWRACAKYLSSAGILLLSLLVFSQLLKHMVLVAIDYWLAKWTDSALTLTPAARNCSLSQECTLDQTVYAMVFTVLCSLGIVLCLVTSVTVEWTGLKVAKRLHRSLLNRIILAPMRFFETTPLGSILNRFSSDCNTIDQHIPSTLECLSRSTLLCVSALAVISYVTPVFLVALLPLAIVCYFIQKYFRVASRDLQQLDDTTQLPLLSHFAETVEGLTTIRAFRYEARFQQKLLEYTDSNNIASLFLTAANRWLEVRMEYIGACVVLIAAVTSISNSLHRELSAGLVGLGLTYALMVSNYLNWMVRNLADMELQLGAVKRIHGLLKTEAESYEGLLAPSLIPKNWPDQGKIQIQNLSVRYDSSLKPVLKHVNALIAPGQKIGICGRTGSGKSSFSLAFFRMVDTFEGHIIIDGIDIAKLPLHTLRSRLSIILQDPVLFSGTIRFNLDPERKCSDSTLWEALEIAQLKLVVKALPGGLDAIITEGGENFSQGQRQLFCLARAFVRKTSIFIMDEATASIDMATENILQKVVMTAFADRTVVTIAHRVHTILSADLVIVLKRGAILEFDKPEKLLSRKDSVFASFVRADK
native and recombinant β-cell KATP channels, sequence (Q09428 whole entry): as above
native and recombinant β-cell KATP channels, sequence (Q14654 whole entry partner): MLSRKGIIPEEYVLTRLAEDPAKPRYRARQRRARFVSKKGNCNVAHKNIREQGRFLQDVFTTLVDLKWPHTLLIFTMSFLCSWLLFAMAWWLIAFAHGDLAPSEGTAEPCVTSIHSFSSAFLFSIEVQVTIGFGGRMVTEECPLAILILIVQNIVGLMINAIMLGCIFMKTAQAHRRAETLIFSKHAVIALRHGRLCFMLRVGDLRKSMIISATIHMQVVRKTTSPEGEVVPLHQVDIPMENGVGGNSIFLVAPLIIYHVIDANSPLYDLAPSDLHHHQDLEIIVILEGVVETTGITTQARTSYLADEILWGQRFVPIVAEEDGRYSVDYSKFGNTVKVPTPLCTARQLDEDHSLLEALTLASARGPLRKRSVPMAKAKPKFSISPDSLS

5′-GGCCGAGTGGTTCTCGGT-3′ (DNA, backbone not given here; phosphorothioate at four distal bonds) [AS-ODN]
blood in cord homogenates ([1]; ODN i.v., vs Scr-ODN): reduced blood in cord homogenates | lesion volume, reduction compared to controls [2]: 3 fold | performance on inclined plane [3, 12]: significantly better performance | vertical exploration [3, 12]: significantly better performance | immunolabeling for SUR1 in cord (SUR1 [4]; 6 h post-SCI, ODN i.v. 1 mg/rat/24 h, vs controls): significantly less immunolabeling for SUR1 | normal expression of SUR1 in dorsal horn cells (SUR1 [4]; post-SCI, ODN i.v.): did not affect | SUR1 protein in gliotic capsule (Western blot) (SUR1 [5]; ODN infused into injury site, vs Scr-ODN): significant reduction in SUR1 protein | depolarization of gliotic capsule astrocytes on ATP depletion by Na azide (SUR1 [5]; vs Scr-ODN (rapidly depolarized)): depolarized only slightly or not at all

CCOc1cc(CC(=O)N[C@@H](CC(C)C)c2ccccc2N2CCCCC2)ccc1C(=O)O [repaglinide]
IC50 [6]: 0.9 to 7 nM | blood in cord homogenates ([1]; vehicle 1.8±0.2, P<0.01): 1.2 ± 0.1 µL | lesion volume, reduction compared to controls [2]: 3 fold | vertical exploration (rearing), time during 3-min observation ([3]; 1 d post-SCI, 200 ng/h s.q.): 27 ± 6 s | inclined plane, head down ([3]; post-SCI, vehicle 29±4, P=0.03): 47±3 degrees | inclined plane, head up ([3]; post-SCI, vehicle 40±4, P=0.01): 62±2 degrees

TNFα
activity of rAbcc8 promoter, increase [7]: ~2 fold | luciferase activity driven by NFκB binding sites, stimulation [7]: ~2.3 fold | Abcc8 mRNA and SUR1 protein [8]: both increased

Nc1ncnc2c1ncn2[C@@H]1O[C@H](COP(=O)(O)OP(=O)(O)OP(=O)(O)O)[C@@H](O)[C@H]1O [ATP]
EC50 [9]: 790 nM

CC1=NS(=O)(=O)c2cc(Cl)ccc2N1 [diazoxide]
whole-cell current response to diazoxide [10]: either had no effect or, in half of the cells, activated an outwardly rectifying current that reversed at potentials more negative than −50 mV | whole-cell current response to diazoxide [11]: activated an ohmic current that reversed near 0 mV
